# From patent US9637491B2, “Pyrazolo[4,3-D]pyrimidines as kinase inhibitors” (Origenis GmbH, priority 2012, dated 2017)
# Molecular target: T1, SYK kinase (Homo sapiens, UniProt P43405)
# T1 construct: purchased Invitrogen, Carlsbad
# Assay: SYK assay (OMNIA Kinase Assay, Invitrogen)
# Format: biochemical
# Settings: SYK Activities; 1 mM ATP, 10 μM Omnia Peptide Substrate Tyr 7, 30° C.
# Summary of the method: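 SYK was added last to start phosphorylation of a chelation-enhanced SOX peptide substrate (10 μM) in the presence of 1 mM ATP and 0.2 mM DTT at 30° C. Kinetic readings at λex 360/λem 485 nm over 30 min gave velocities, fitted sigmoidally against compound concentration to give IC50.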
row,IC50 [nM],SMILES
1,100 to 1000,"COCCCn1cc(Nc2nc(C(C)(C)C)nc3cn[nH]c23)cn1 [Example 270, 5-(tert-butyl)-N-(1-(3-methoxypropyl)-1H-pyrazol-4-yl)-1H-pyrazolo[4,3-d]pyrimidin-7-amine]"
2,10 to 100,"OCCN1CCN(c2ccc(Nc3nc(-c4ccc5cn[nH]c5c4)nc4cn[nH]c34)cc2)CC1 [Example 422, 2-(4-(4-((5-(1H-indazol-6-yl)-1H-pyrazolo[4,3-d]pyrimidin-7-yl)amino)phenyl)piperazin-1-yl)ethan-1-ol]"
3,100 to 1000,"CC(C)(C#N)c1ccc(Nc2nc(-c3c(F)cccc3F)nc3cn[nH]c23)cc1 [Example 28, 2-(4-((5-(2,6-difluorophenyl)-1H-pyrazolo[4,3-d]pyrimidin-7-yl)amino)phenyl)-2-methylpropanenitrile]"
4,< 10,"COc1cc(Nc2nc(C3CC3)nc3cn[nH]c23)ccc1N1CCOCC1 [Example 35, 5-cyclopropyl-N-(3-methoxy-4-morpholinophenyl)-1H-pyrazolo[4,3-d]pyrimidin-7-amine]"
5,100 to 1000,"CC(C)Cn1cc(Nc2nc(C3CCC3)nc3cn[nH]c23)cn1 [Example 234, 5-cyclobutyl-N-(1-isobutyl-1H-pyrazol-4-yl)-1H-pyrazolo[4,3-d]pyrimidin-7-amine]"
6,100 to 1000,"CS(=O)(=O)Nc1cccc(-c2nc(Nc3cnn(C4CCOCC4)c3)c3[nH]ncc3n2)c1 [Example 263, N-(3-(7-((1-(tetrahydro-2H-pyran-4-yl)-1H-pyrazol-4-yl)amino)-1H-pyrazolo[4,3-d]pyrimidin-5-yl)phenyl)methanesulfonamide]"
7,< 10,"CC(=O)N1CCC(n2cc(Nc3nc(C4CC4)nc4cn[nH]c34)cn2)CC1 [Example 204, 1-(4-(4-((5-cyclopropyl-1H-pyrazolo[4,3-d]pyrimidin-7-yl)amino)-1H-pyrazol-1-yl)piperidin-1-yl)ethan-1-one]"
8,100 to 1000,"CC(C)(O)Cn1cc(Nc2nc(-c3ccco3)nc3cn[nH]c23)cn1 [Example 369, 1-(4-((5-(furan-2-yl)-1H-pyrazolo[4,3-d]pyrimidin-7-yl)amino)-1H-pyrazol-1-yl)-2-methylpropan-2-ol]"
9,< 10,"O=C1CCc2ccc(Nc3nc(C4CC4)nc4cn[nH]c34)cc2N1 [Example 22, 7-((5-cyclopropyl-1H-pyrazolo[4,3-d]pyrimidin-7-yl)amino)-3,4-dihydroquinolin-2(1H)-one]"
10,100 to 1000,"Fc1cccc(F)c1-c1nc(Nc2cnn(C3CCOCC3)c2)c2[nH]ncc2n1 [Example 439, 5-(2,6-difluorophenyl)-N-(1-(tetrahydro-2H-pyran-4-yl)-1H-pyrazol-4-yl)-1H-pyrazolo[4,3-d]pyrimidin-7-amine]"
11,< 10,"CN1CCC(n2cc(Nc3nc(-c4ccco4)nc4cn[nH]c34)cn2)CC1 [Example 198, 5-(furan-2-yl)-N-(1-(1-methylpiperidin-4-yl)-1H-pyrazol-4-yl)-1H-pyrazolo[4,3-d]pyrimidin-7-amine]"
12,100 to 1000,"CC(C)Cn1cc(-c2nc(Nc3ccc(N4CCOCC4)cc3)c3[nH]ncc3n2)cn1 [Example 383, 5-(1-isobutyl-1H-pyrazol-4-yl)-N-(4-morpholinophenyl)-1H-pyrazolo[4,3-d]pyrimidin-7-amine]"
13,< 10,"COCCCn1cc(Nc2nc(-c3ccco3)nc3cn[nH]c23)cn1 [Example 215, 5-(furan-2-yl)-N-(1-(3-methoxypropyl)-1H-pyrazol-4-yl)-1H-pyrazolo[4,3-d]pyrimidin-7-amine]"
14,100 to 1000,"CC(C)(C)OC(=O)N1CCC(n2cc(Nc3nc(-c4ccco4)nc4cn[nH]c34)cn2)C1 (stereo not shown) [Example 453, tert-butyl 3-(4-((5-(furan-2-yl)-1H-pyrazolo[4,3-d]pyrimidin-7-yl)amino)-1H-pyrazol-1-yl)pyrrolidine-1-carboxylate]"
15,100 to 1000,"COCCn1ncc(Nc2nc(-c3ccco3)nc3cn[nH]c23)c1F [Example 403, N-(5-fluoro-1-(2-methoxyethyl)-1H-pyrazol-4-yl)-5-(furan-2-yl)-1H-pyrazolo[4,3-d]pyrimidin-7-amine]"
16,10 to 100,"FC(F)(F)Cn1cc(Nc2nc(-c3ccco3)nc3cn[nH]c23)cn1 [Example 377, 5-(furan-2-yl)-N-(1-(2,2,2-trifluoroethyl)-1H-pyrazol-4-yl)-1H-pyrazolo[4,3-d]pyrimidin-7-amine]"
17,10 to 100,"FC(F)(F)Cn1cc(Nc2nc(-c3ccc4cn[nH]c4c3)nc3cn[nH]c23)cn1 [Example 517, 5-(1H-indazol-6-yl)-N-(1-(2,2,2-trifluoroethyl)-1H-pyrazol-4-yl)-1H-pyrazolo[4,3-d]pyrimidin-7-amine]"
18,< 10,"CC(C)n1cc(Nc2nc(C3CC3)nc3cn[nH]c23)cn1 [Example 229, 5-cyclopropyl-N-(1-isopropyl-1H-pyrazol-4-yl)-1H-pyrazolo[4,3-d]pyrimidin-7-amine]"
19,100 to 1000,"COc1cc(Nc2nc(C3C4CCCCC43)nc3cn[nH]c23)ccc1N1CCOCC1 (stereo not shown) [Example 475, 5-(bicyclo[4.1.0]heptan-7-yl)-N-(3-methoxy-4-morpholinophenyl)-1H-pyrazolo[4,3-d]pyrimidin-7-amine]"
20,< 10,"c1nn(C2CC2)cc1Nc1nc(-c2ccc3cn[nH]c3c2)nc2cn[nH]c12 [Example 418, N-(1-cyclopropyl-1H-pyrazol-4-yl)-5-(1H-indazol-6-yl)-1H-pyrazolo[4,3-d]pyrimidin-7-amine]"
21,10 to 100,"O=c1cc(Nc2nc(C3CC3)nc3cn[nH]c23)ccn1C1CC1 [Example 296, 1-cyclopropyl-4-((5-cyclopropyl-1H-pyrazolo[4,3-d]pyrimidin-7-yl)amino)pyridin-2(1H)-one]"
22,10 to 100,"CN1CCC(n2cc(Nc3nc(-c4cccc(NS(C)(=O)=O)c4)nc4cn[nH]c34)cn2)CC1 [Example 264, N-(3-(7-((1-(1-methylpiperidin-4-yl)-1H-pyrazol-4-yl)amino)-1H-pyrazolo[4,3-d]pyrimidin-5-yl)phenyl)methanesulfonamide]"
23,100 to 1000,"COCCn1cc(Nc2nc(C(C)C)nc3cn[nH]c23)cn1 [Example 185, 5-isopropyl-N-(1-(2-methoxyethyl)-1H-pyrazol-4-yl)-1H-pyrazolo[4,3-d]pyrimidin-7-amine]"
24,100 to 1000,"CC(=O)N1CCC(n2cc(Nc3nc(C(C)C)nc4cn[nH]c34)cn2)CC1 [Example 186, 1-(4-(4-((5-isopropyl-1H-pyrazolo[4,3-d]pyrimidin-7-yl)amino)-1H-pyrazol-1-yl)piperidin-1-yl)ethan-1-one]"
25,10 to 100,"CC(C)(C)N1CCN(c2ccc(Nc3nc(-c4c(F)cccc4F)nc4cn[nH]c34)cc2)CC1 [Example 10, N-(4-(4-(tert-butyl)piperazin-1-yl)phenyl)-5-(2,6-difluorophenyl)-1H-pyrazolo[4,3-d]pyrimidin-7-amine]"
26,10 to 100,"c1csc(-c2nc(Nc3cnn(C4CCOCC4)c3)c3[nH]ncc3n2)c1 [Example 430, N-(1-(tetrahydro-2H-pyran-4-yl)-1H-pyrazol-4-yl)-5-(thiophen-2-yl)-1H-pyrazolo[4,3-d]pyrimidin-7-amine]"
27,100 to 1000,"COCCn1cc(Nc2nc(C3CC3)nc3cn[nH]c23)cn1 [Example 194, 5-cyclopropyl-N-(1-(2-methoxyethyl)-1H-pyrazol-4-yl)-1H-pyrazolo[4,3-d]pyrimidin-7-amine]"
28,100 to 1000,"CN(C)C(=O)Cn1cc(Nc2nc(C3CCC3)nc3cn[nH]c23)cn1 [Example 461, 2-(4-((5-cyclobutyl-1H-pyrazolo[4,3-d]pyrimidin-7-yl)amino)-1H-pyrazol-1-yl)-N,N-dimethylacetamide]"
